Data set [1] has as its system transplanted paddy rice plant and Bulrush. In words: Test Example 5: selectivity between transplanted paddy rice plant and weeds. It counts as in vivo. Particulars: (highest dosage with no phytotoxicity to paddy rice)/(lowest dosage with effective level 4 on Bulrush); rice 3000-100 g/ha, Bulrush 300-10 g/ha; 21 days. As for the experimental part: (§1) The standard of judgment for herbicidal efficacy (degree of growth inhibition) and phytotoxicity 4 . . . 90%-100% of herbicidal efficacy or phytotoxicity 3 . . . 70%-89% of herbicidal efficacy or phytotoxicity 2 . . . 40%-69% of herbicidal efficacy or phytotoxicity 1 . . . 1%-39% of herbicidal efficacy or phytotoxicity 0 . . . 0% of herbicidal efficacy or phytotoxicity
Phytotoxicity test for transplanted paddy rice plants was carried out, as in Test Example 3, by the treatment of 3000, 1000, 300 and 100 (g/ha of the active ingredient) dosage, and herbicidal test to weed post-emergence was carried out to Burlush seeded as in Test Example 2 treating at 300, 100, 30 and 10 (g/ha) dosage. The pots were kept in a hot house for 21 days after the treatment, and the phytotoxicity and the herbicidal efficacy was investigated and evaluated according to the standard in Test Example 1 by comparing with the untreated control. […] Further, as a comparative compound, the compound No. 6-28 described in the JP-A-2004-107322 was used.

The subject of data set [2] is bulrush. In words: Test Example 2: herbicidal efficacy on rice paddy weeds post-emergence. It counts as in vivo, Scirpus juncoides. To be noted: dosage 1000 g/ha; post-emergence, one leaf stage; 21 days after treatment.
In data set [3] the test system is bulrush. In words: Test Example 4: low dosage test for rice paddy weeds. It counts as in vivo, Scirpus juncoides. To be noted: 300 g/ha as an active ingredient; plants treated at the one leaf stage; 21 days after treatment; vs untreated control.
From the text: as §1
A 75 cm^2 plastic pot was filled with soil (clay loam) and planted seeds of bulrush which is a rice paddy weed. After covering the top with 75 cm^3 soil, the pot was filled with water so that the soil submerged under 5 cm depth of water and kept in a hot house. The test plants, at the one leaf stage, were treated with the solution of a formulation containing the compound of the present invention as an active ingredient at the predetermined effective dosage (300 g/ha as an active ingredient). The pots were kept in a hot house for 21 days after the treatment and the herbicidal efficacy was investigated and evaluated according to the standard in Test Example 1 by comparing with the untreated control. Further, as a comparative compound, the compound No. 6-28 described in the JP-A-2004-107322 was used.

Data set [4] concerns false pimpernel. The experiment in a line: Test Example 1: herbicidal efficacy on rice paddy weeds pre-emergence. In kind it is in vivo, Lindernia pyxidaria. Particulars: dosage 1000 g/ha, 21 days.
Data set [5] concerns false pimpernel. The experiment in a line: Test Example 2: herbicidal efficacy on rice paddy weeds post-emergence. In kind it is in vivo, Lindernia pyxidaria. To be noted: dosage 1000 g/ha; post-emergence, one leaf stage; 21 days after treatment.
Data set [6] has as its system paddy rice plant (cultivar: Nihonbare). The experiment in a line: Test Example 3: phytotoxicity test for transplanted paddy rice plant. In kind it is in vivo. Particulars: dosage 1000 g/ha; transplanted rice, treated 5 days after transplantation; 21 days after treatment. The gist of the method:
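Clay loam soil was placed in a 75 cm^2 plastic pot and flooded to a water depth of 5 cm. Two Nihonbare paddy rice plants at the two-leaf stage were transplanted 1 cm deep and grown in a hot house. After treatment, pots stayed in the hot house for 21 days, and phytotoxicity was then graded against an untreated control.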

In data set [7] the test system is bulrush. The experiment in a line: Test Example 1: herbicidal efficacy on rice paddy weeds pre-emergence. It counts as in vivo, Scirpus juncoides. To be noted: dosage 1000 g/ha, 21 days.
In another data set the test system is barnyard glass. The experiment in a line: Test Example 2: herbicidal efficacy on rice paddy weeds post-emergence. To be noted: dosage 1000 g/ha; post-emergence, one leaf stage; 21 days after treatment. It counts as in vivo, Echinochloa crus-galli. The gist of the method:
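Efficacy on paddy weeds was scored on a 0 to 4 growth-inhibition scale: 4 for 90%-100%, 3 for 70%-89%, 2 for 40%-69%, 1 for 1%-39% and 0 for 0%. Barnyard glass was grown in clay loam in 75 cm^2 pots under 5 cm of water in a hot house. It was compared with untreated pots 21 days after treatment.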

Take `CCC1(C)CN(Cc2ccccc2N(C(=O)OC)S(=O)(=O)C(F)(F)F)C(=O)O1` (racemic) [1-108]: in data set [1], the “Selective Index” value is 30. Moreover, the “Bulrush post (herbicidal efficacy grade)” value in the data set on bulrush [2] is reported as 4 (90%-100% of herbicidal efficacy or phytotoxicity). In addition, the “Herbicide effect to Bulrush” value with bulrush [3] is recorded as 4 (90%-100% of herbicidal efficacy or phytotoxicity). The “False pimpernel pre (herbicidal efficacy grade)” value (“False pimpernel pre” below) in the data set with false pimpernel [4] is 4 (90%-100% of herbicidal efficacy or phytotoxicity). In addition, the “False pimpernel post (herbicidal efficacy grade)” value (“False pimpernel post” for short) in the data set on false pimpernel [5] is 4 (90%-100% of herbicidal efficacy or phytotoxicity). In data set [6], the “Phytotoxicity to paddy rice” value is recorded as 2 (40%-69% of herbicidal efficacy or phytotoxicity). The “Bulrush pre (herbicidal efficacy grade)” value with bulrush [7] is reported as 4 (90%-100% of herbicidal efficacy or phytotoxicity). Besides, the “Burnyard grass post (herbicidal efficacy grade)” value (shortened to “Burnyard grass post”) in the data set with barnyard glass was 4 (90%-100% of herbicidal efficacy or phytotoxicity).

With `COC(=O)N(c1ccccc1CN1CC(C)(C2CC2)OC1=O)S(=O)(=O)C(F)(F)F` (racemic) [1-110], the “Selective Index” value in data set [1] is “≧30”. Moreover, in the data set on bulrush [2], the “Bulrush post (herbicidal efficacy grade)” value was 4 (90%-100% of herbicidal efficacy or phytotoxicity). The “Herbicide effect to Bulrush” value in the data set on bulrush [3] was 4 (90%-100% of herbicidal efficacy or phytotoxicity). Moreover, the “False pimpernel pre” value with false pimpernel [4] was 4 (90%-100% of herbicidal efficacy or phytotoxicity). The “False pimpernel post” value with false pimpernel [5] is listed as 4 (90%-100% of herbicidal efficacy or phytotoxicity). Besides, the “Phytotoxicity to paddy rice” value in data set [6] is 2 (40%-69% of herbicidal efficacy or phytotoxicity). Further, in the data set on bulrush [7], the “Bulrush pre (herbicidal efficacy grade)” value is listed as 4 (90%-100% of herbicidal efficacy or phytotoxicity). Also, in the data set on barnyard glass, the “Burnyard grass post” value is recorded as 4 (90%-100% of herbicidal efficacy or phytotoxicity).

In the case of `CCOC(=O)N(c1ccccc1CN1CC(C)(C2CC2)OC1=O)S(=O)(=O)C(F)(F)F` (racemic) [1-111], the “Selective Index” value in data set [1] is “≧30”. Also, in the data set on bulrush [2], the “Bulrush post (herbicidal efficacy grade)” value was 4 (90%-100% of herbicidal efficacy or phytotoxicity). Also, the “Herbicide effect to Bulrush” value with bulrush [3] is 4 (90%-100% of herbicidal efficacy or phytotoxicity). Further, the “False pimpernel pre” value in the data set with false pimpernel [4] is reported as 4 (90%-100% of herbicidal efficacy or phytotoxicity). Also, the “False pimpernel post” value in the data set on false pimpernel [5] was 4 (90%-100% of herbicidal efficacy or phytotoxicity). Also, the “Phytotoxicity to paddy rice” value in data set [6] is 2 (40%-69% of herbicidal efficacy or phytotoxicity). Further, the “Bulrush pre (herbicidal efficacy grade)” value in the data set on bulrush [7] is 4 (90%-100% of herbicidal efficacy or phytotoxicity). For the same compound, the “Burnyard grass post” value in the data set on barnyard glass is 4 (90%-100% of herbicidal efficacy or phytotoxicity).

Take `CCCOC(=O)N(c1ccccc1CN1CC(C)(C2CC2)OC1=O)S(=O)(=O)C(F)(F)F` (racemic) [1-112]: the “Selective Index” value in data set [1] is 30. Further, the “Bulrush post (herbicidal efficacy grade)” value in the data set on bulrush [2] was 4 (90%-100% of herbicidal efficacy or phytotoxicity). The “Herbicide effect to Bulrush” value in the data set with bulrush [3] is recorded as 4 (90%-100% of herbicidal efficacy or phytotoxicity). The “False pimpernel pre” value with false pimpernel [4] was 4 (90%-100% of herbicidal efficacy or phytotoxicity). The “False pimpernel post” value in the data set on false pimpernel [5] was 4 (90%-100% of herbicidal efficacy or phytotoxicity). Besides, in data set [6], the “Phytotoxicity to paddy rice” value is on record as 2 (40%-69% of herbicidal efficacy or phytotoxicity). Besides, the “Bulrush pre (herbicidal efficacy grade)” value in the data set with bulrush [7] is 4 (90%-100% of herbicidal efficacy or phytotoxicity). Besides, the “Burnyard grass post” value with barnyard glass is 4 (90%-100% of herbicidal efficacy or phytotoxicity).

`CCCCOC(=O)N(c1ccccc1CN1CC(C)(C2CC2)OC1=O)S(=O)(=O)C(F)(F)F` (racemic) [1-113]: the “Selective Index” value in data set [1] stood at 30. In addition, the “Bulrush post (herbicidal efficacy grade)” value in the data set with bulrush [2] is reported as 4 (90%-100% of herbicidal efficacy or phytotoxicity). The “Herbicide effect to Bulrush” value in the data set with bulrush [3] is 4 (90%-100% of herbicidal efficacy or phytotoxicity). Moreover, the “False pimpernel pre” value in the data set on false pimpernel [4] is 4 (90%-100% of herbicidal efficacy or phytotoxicity). Also, the “False pimpernel post” value in the data set with false pimpernel [5] is on record as 4 (90%-100% of herbicidal efficacy or phytotoxicity). Moreover, the “Phytotoxicity to paddy rice” value in data set [6] is on record as 1 (1%-39% of herbicidal efficacy or phytotoxicity). In the data set on bulrush [7], the “Bulrush pre (herbicidal efficacy grade)” value is listed as 4 (90%-100% of herbicidal efficacy or phytotoxicity). Moreover, the “Burnyard grass post” value in the data set on barnyard glass was 4 (90%-100% of herbicidal efficacy or phytotoxicity).
